Measured values as given in patent publication US11685741B2, “Fluorescent probes” (University of Massachusetts, priority 2017, dated 2023).

Tests used:
zebrafish = test: Zebrafish confocal imaging of free Fe2+; type: in vivo
Experimental: Embryos were collected from natural spawning and raised up in embryo medium (M. Santra, et al. Chem. Commun., 2009, 10, 2115). Zebrafish mutant strain Casper was utilized because it lacks pigment, allowing better visualization (J. A. Lister, et al., Development, 1999, 126, 3757). Zebrafish embryos at 6 days post fertilization (dpf) were incubated with 10 μM NIRh-Fret in embryo media for 1 h at 28° C. In addition, iron (II) loaded zebrafish (100 μM Fe (NH4)2(SO4)2 for 8 hours incubation) were incubated with 10 μM NIRh-Fret in embryo media for 1 h at 28° C. The treated zebrafish were imaged by a LSM710 confocal microscope.
The ability of NIRh-Fret to detect free Fe^2+ in zebrafish was further investigated using confocal microscopy. […] For Fe^2+ replete conditions, live zebrafish were incubated with 100 μM of ferrous ammonium sulfate (Fe (NH4)2(SO4)2) at 28° C. for 8 h followed by washing with E3 medium to remove excess Fe^2+ and then 10 μM of NIRh-Fret was added to the culture media and was incubated at 28° C. for 30 min.
In addition, the red-colored region was observed as a well-localized red round spot, being the intestine region of the 6-days-old zebrafish.

[1] = Metal ion sensing: UV-vis and fluorescence response to Fe2+ and other metal ions
Experimental: Selectivity and spectroscopic properties of the Rh6GD sensor were investigated to evaluate the performance of the fluorescence sensor in solution. The solution of metal ions were prepared from chloride salts of Ni^2+, Fe^3+, Cu^2+, Mn^2+, Hg^2+, Na^+, Ca^2+, Zn^2+, Ag^+, and nitrate salts of Mg^2+, K^+, Co^2+ (1 mM) in deionized water, except for Cu^2+ and Co^2+, which were dissolved in acetonitrile anhydrous. Solution of Cu^+ was freshly prepared by dissolving tetrakis(acetonitrile)copper(I) (Sigma-Aldrich) into double-distilled water. […]
(§1) The color change for Fe^2+ is readily detected visually. […]
The changes in fluorescence spectra of Rh6GD with the addition of different metal ions in H2O/THF (pH 7.32, v/v 4:1) are shown in FIG. 23. When Fe^2+ was added into the solution of Rh6GD, a large fluorescence enhancement at 549 nm was observed, induced by the complexation of Fe^2+.
Moreover, upon the addition of 1 equiv of Fe^2+ into solutions containing one of the other metal ions tested, the fluorescence was activated and the intensity increased to a level similar to that observed in the presence of Fe^2+ only (the black bars in FIG. 24).
Metal ion selectivity and spectroscopic properties of the sensor were investigated to evaluate the performance of the fluorescence sensor Rh101D. […]
as §1

SMILES	fluorescence of Fe^2+-treated zebrafish versus unsupplemented (zebrafish; 100 μM ferrous ammonium sulfate 8 h, then 10 μM NIRh-Fret 30 min)	fluorescence of zebrafish with sensor only (zebrafish; 6-days-old zebrafish, 10 μM NIRh-Fret)	fluorescence enhancement response to Fe^2+ [1]	emission intensity enhancement ([1]; 1.0 equiv of Fe^2+, H2O/THF pH 7.32, 549 nm (Rh6GD), 743 nm (NIRh-Fret))
CCN(CC)c1ccc2c(c1)OC1=C(CCC/C1=C\C=C1\N(C)c3ccccc3C1(C)C)C21c2ccccc2C(=O)N1/N=C\C=C\c1ccc(N(C)C)cc1 (stereo not shown) [NIRh-Fret, (E)-6′-(diethylamino)-2-(((1Z,2E)-3-(4-(dimethylamino)phenyl)allylidene)amino)-4′-(2-((E)-1,3,3-trimethylindolin-2-ylidene)ethylidene)-1′,2′,3′,4′-tetrahydrospiro[isoindoline-1,9′-xanthen]-3-one]	significant increase in fluorescent signals	weak fluorescence		
CCNc1cc2c(cc1C)C1(c3cc(C)c(NCC)cc3O2)c2ccccc2C(=O)N1/N=C/C=C/c1ccc(N(C)C)cc1 [Rh6GD, 2-(((1E,2E)-3-(4-(dimethylamino)phenyl)allylidene)amino)-3′,6′-bis(ethylamino)-2′,7′-dimethylspiro[isoindoline-1,9′-xanthen]-3-one]			3 fold	around 3 times
